The values that follow come from patent publication US12428378B2, “Methods and materials for increasing level of phosphorylated AMPK protein” (University of Pittsburgh—Of the Commonwealth System of …, priority 2019, dated 2025).

Structures are written as SMILES.

This assay concerns pAMPK. The assay can be described thus: pAMPK immunostaining chemiluminescence assay in Beas2B cells. To be noted: Homo sapiens, BEAS-2B, 18 h, DMEM no glucose media, compounds 3-34, 36-44, 47-60 tested as HCl salts, read-out: efficacy (minimal compound concentration needed to increase pAMPK by 30%). It counts as cell-based. Here is the method:
Beas2B cells were plated in 384 white nunc plate (4000 cells per well) for overnight. Compounds were serially diluted in DMEM no glucose media using the liquid handler. Cells were washed once using Biotek EL406 before compound addition for additional 18 hours. Cells were washed and fixed with PFA before immunostained with pAMPK primary antibody and anti-Rabbit HRP secondary antibody. Finally, 25 μl of ECL reagent will be added to cells, and chemical luminescence signal will be counted using plate reader. Compounds efficacies (μM) were determined by the minimal compound concentration needed to increase pAMPK by 30%. Activity: “+” equals >10 μM; “++” equals between ≤10 μM and >1 μM; and “+++” equals ≤1 μM.

Take `Cc1ccccc1CN(Cc1cccc(C(N)=O)c1)CC(O)COc1ccc(C(F)(F)F)cc1` (stereo not drawn) [compound 49]: the EC (30% increase) fell in the range of 1 to 10 µM. For `OC(COc1ccc(C(F)(F)F)cc1)CN1CCc2ccccc2[C@@H]1c1ccccc1` (stereo partly drawn) [compound 111], the EC (30% increase) lay within 1 to 10 µM. The same measure for `Cc1ccccc1CN(CCCOc1ccc(C(F)(F)F)cc1)Cc1cncn1C` [compound 119]: not above 1 µM. In the case of `FC(F)(F)c1ccc(OCCCN(Cc2ccccc2)Cc2cccnc2)cc1` [compound 136], the EC (30% increase) is not above 1 µM.

With `O=C(C(O)COc1ccc(C(F)(F)F)cc1)N(Cc1cccnc1)Cc1ccccc1Cl` (stereo not drawn) [compound 137], the EC (30% increase) is not above 1 µM.

In the case of `Cc1ccccc1CN(CC(C)(C)COc1ccc(C(F)(F)F)cc1)C(=O)c1cncn1C` [compound 192], the EC (30% increase) is not above 1 µM. Take `O[C@H](COc1ccc(C(F)(F)F)cc1)CN1Cc2ccccc2C[C@H]1c1cccnc1` [compound 133]: the EC (30% increase) is not above 1 µM. Consider `OC(COc1ccc(C(F)(F)F)cc1)CN1CCc2ccccc2C1c1cncs1` (stereo not drawn) [compound 93], for which the EC (30% increase) is 1 to 10 µM.

Consider `Cc1ccccc1CN(CC(O)COc1ccc(C(F)(F)F)cc1)C(=O)c1nccn1C` (stereo not drawn) [compound 83], for which the EC (30% increase) is not above 1 µM.

For `Cc1ccccc1CN(Cc1cccnn1)CC(C)(C)COc1ccc(C(F)(F)F)cc1` [compound 181], the EC (30% increase) was not above 1 µM. Consider `Cc1ccccc1CN(Cc1cccnc1)C(=O)CCOc1ccc(C(F)(F)F)cc1` [compound 64], for which the EC (30% increase) was in the range of 1 to 10 µM. `Cc1ccc(C(=O)N(Cc2ccccc2C)CC(O)COc2ccc(C(F)(F)F)cc2)cc1` (stereo not drawn) [compound 67]: the EC (30% increase) was not above 1 µM.

With `Cc1ccncc1CN(Cc1ccccc1)CC(O)COc1ccc(C(F)(F)F)cc1` (stereo not drawn) [compound 27], the EC (30% increase) is not above 1 µM. The value for `OC(COc1ccc(C(F)(F)F)cc1)CN1Cc2ccccc2C1c1ccccc1` (stereo not drawn) [compound 22] was 1 to 10 µM; that for `Cc1ccncc1C1OC(COc2ccc(C(F)(F)F)cc2)CN1Cc1cccnc1` (stereo not drawn) [compound 31] was 1 to 10 µM. With `O=C(COc1ccc(C(F)(F)F)cc1)Cc1nc2ccccc2cc1-c1cccnc1` [compound 103], the EC (30% increase) was more than 10 µM. The same measure for `FC(COc1ccc(C(F)(F)F)cc1)CN(Cc1cccnc1)Cc1ccccc1Cl` (stereo not drawn) [compound 164]: not above 1 µM; for `Cn1ccnc1C1Cc2ccccc2CN1CC(O)COc1ccc(C(F)(F)F)cc1` (stereo not drawn) [compound 149]: 1 to 10 µM. The same measure for `Cc1ccccc1CN(CC(O)COc1ccc(C(F)(F)F)cc1)C(=O)c1cocn1` (stereo not drawn) [compound 78]: not above 1 µM; for `Cc1ccccc1CN(CC(O)COc1ccc(C(F)(F)F)cc1)C(=O)c1c[nH]cn1` (stereo not drawn) [compound 74]: 1 to 10 µM. The value for `O=C(c1cccnc1)N(Cc1ccccc1Cl)CC(O)COc1ccc(C(F)(F)F)cc1` (stereo not drawn) [compound 141] was not above 1 µM. On to `Cc1ccccc1CN(CC(O)COc1ccc(C(F)(F)F)cc1)C(C)c1cncs1` (stereo not drawn) [compound 176], for which the EC (30% increase) was in the range of 1 to 10 µM. On to `Fc1ccccc1CN(Cc1cccnc1)CC1(COc2ccc(C(F)(F)F)cc2)CC1` [compound 143], for which the EC (30% increase) is not above 1 µM. Turning to `Cn1cncc1C(=O)N(Cc1ccccc1C(F)(F)F)CC(O)COc1ccc(C(F)(F)F)cc1` (stereo not drawn) [compound 145], the EC (30% increase) lay in the range of 1 to 10 µM. For the molecule `Cc1ccccc1CN(CC(O)COc1ccc(C(F)(F)F)cc1)C(=O)c1ccnn1C` (stereo not drawn) [compound 152], the EC (30% increase) lay in the range of 1 to 10 µM. The value for `Cc1ccccc1CN(Cc1cnc[nH]1)CC(O)COc1ccc(C(F)(F)F)cc1` (stereo not drawn) [compound 39] was 1 to 10 µM. Regarding `Cc1ccncc1CN(Cc1cccnc1)CC(O)COc1ccc(C(F)(F)F)cc1` (stereo not drawn) [compound 29], the EC (30% increase) is not above 1 µM. With `FC(F)(F)c1ccc(OCCCN2CCc3ccccc3C2c2cncs2)cc1` (stereo not drawn) [compound 107], the EC (30% increase) was not above 1 µM. As for `[2H]C1(c2cccnc2)c2ccccc2CCN1CC(O)COc1ccc(C(F)(F)F)cc1` (stereo not drawn) [compound 96], the EC (30% increase) was not above 1 µM. On to `Cc1ncccc1CN(Cc1cccnc1)CC(O)COc1ccc(C(F)(F)F)cc1` (stereo not drawn) [compound 28], for which the EC (30% increase) was not above 1 µM. The value for `c1ccc(CN(CCCOc2ccccc2)Cc2ccccc2)cc1` [compound 61] was 1 to 10 µM; that for `FC(F)(F)c1ccc(OCCCN(Cc2cccnc2)Cc2ccccc2C(F)(F)F)cc1` [compound 174] was not above 1 µM. For `O[C@H](COc1ccc(C(F)(F)F)cc1)CN1CCc2ccccc2[C@@H]1c1ccccc1` [compound 113], the EC (30% increase) is 1 to 10 µM. In the case of `[2H]C([2H])(c1cccnc1)N(CCCOc1ccc(C(F)(F)F)cc1)Cc1ccccc1C` [compound 135], the EC (30% increase) was not above 1 µM. With `Cn1cncc1CN(CCOc1ccc(C(F)(F)F)cc1)Cc1ccccc1F` [compound 160], the EC (30% increase) is not above 1 µM. As for `OC(COc1ccc(C(F)(F)F)cc1)CN(CCc1ccccc1)Cc1ccccc1` (stereo not drawn) [compound 6], the EC (30% increase) was 1 to 10 µM. As for `Cc1ccccc1CN(Cc1cccnc1)CC(C)(O)COc1ccc(C(F)(F)F)cc1` (stereo not drawn) [compound 200], the EC (30% increase) was not above 1 µM. As to `Cc1ccccc1CN(CC(O)COc1ccc(C(F)(F)F)cc1)C(=O)c1cccnc1` (stereo not drawn) [compound 45], the EC (30% increase) was not above 1 µM. For `Cc1ccccc1CN(CCCOc1ccc(C(F)(F)F)cc1)C(=O)c1ccccc1` [compound 110], the EC (30% increase) is not above 1 µM. As to `Cn1ccnc1CN(CCCOc1ccc(C(F)(F)F)cc1)Cc1ccccc1Cl` [compound 106], the EC (30% increase) is not above 1 µM.

Regarding `Cc1ccccc1CN(Cc1cccnc1)CC(C)COc1ccc(C(F)(F)F)cc1` (stereo not drawn) [compound 191], the EC (30% increase) is not above 1 µM. Regarding `[2H]C(C)(c1cccnc1)N(Cc1ccccc1Cl)CC(O)COc1ccc(C(F)(F)F)cc1` (stereo not drawn) [compound 163], the EC (30% increase) was more than 10 µM. The value for `Cc1ccccc1CN(CC(O)COc1ccc(C(F)(F)F)cc1)C(=O)c1cc[nH]n1` (stereo not drawn) [compound 75] was 1 to 10 µM; that for `Cc1ccccc1CN(CC(O)COc1ccc(C(F)(F)F)cc1)[C@@H](c1cccnc1)C(F)(F)F` (stereo partly drawn) [compound 198] was more than 10 µM. The value for `Cc1ccccc1CN(CC(O)COc1ccc(C(F)(F)F)cc1)C(=O)c1ncc[nH]1` (stereo not drawn) [compound 77] was 1 to 10 µM; that for `Cc1ccccc1CN(Cc1sccc1C)CC(O)COc1ccc(C(F)(F)F)cc1` (stereo not drawn) [compound 71] was 1 to 10 µM; that for `O[C@H](COc1ccc(C(F)(F)F)cc1)CN(Cc1ccccc1)Cc1ccccc1` [compound 2] was 1 to 10 µM. Regarding `[2H]C1(c2cccnc2)c2ccccc2CCN1CCCOc1ccc(C(F)(F)F)cc1` (stereo not drawn) [compound 101], the EC (30% increase) was not above 1 µM. Regarding `Cc1ccccc1CN(Cc1ccccc1C)CC(O)COc1ccc(C(F)(F)F)cc1` (stereo not drawn) [compound 4], the EC (30% increase) is not above 1 µM. As for `OC(COc1cncnc1)CN(Cc1ccccc1)Cc1ccccc1` (stereo not drawn) [compound 16], the EC (30% increase) was in the range of 1 to 10 µM. With `FC(F)(F)c1ccc(OCC2(CN(Cc3cccnc3)Cc3ccccc3Cl)CC2)cc1` [compound 142], the EC (30% increase) was not above 1 µM. For `OC(COc1ccc(C(F)(F)F)cc1)CN1CCc2ccccc2[C@H]1c1ccccc1` (stereo partly drawn) [compound 114], the EC (30% increase) was more than 10 µM. As to `OC(COc1ccc(C(F)(F)F)cc1)CN1Cc2ccccc2C[C@H]1c1cccnc1` (stereo partly drawn) [compound 132], the EC (30% increase) is not above 1 µM. Regarding `Cc1ncccc1CN(Cc1ccccc1)CC(O)COc1ccc(C(F)(F)F)cc1` (stereo not drawn) [compound 26], the EC (30% increase) is not above 1 µM. In the case of `CC(C)(COc1ccc(C(F)(F)F)cc1)CN(Cc1cccnc1)Cc1ccccc1Cl` [compound 186], the EC (30% increase) was not above 1 µM. With `FC(F)(F)c1ccc(OCCCN2Cc3ccccc3CC2c2cncs2)cc1` (stereo not drawn) [compound 124], the EC (30% increase) fell in the range of 1 to 10 µM.

Take `FC(F)(F)c1ccc(OCCCN2CCc3ccccc3C2c2cccnc2)cc1` (stereo not drawn) [compound 100]: the EC (30% increase) was not above 1 µM.

For the molecule `O[C@@H](COc1ccc(C(F)(F)F)cc1)CN1Cc2ccccc2C[C@H]1c1cccnc1` [compound 134], the EC (30% increase) was not above 1 µM. The value for `OC(COc1ccc(C(F)(F)F)cc1)CN1Cc2ccccc2C1` (stereo not drawn) [compound 19] was more than 10 µM; that for `CC(=O)OC(COc1ccc(C(F)(F)F)cc1)C(=O)N(Cc1cncs1)Cc1ccccc1Cl` (stereo not drawn) [compound 126] was more than 10 µM. As for `Cc1ccccc1CN(CC(O)COc1ccc(C(F)(F)F)cc1)S(=O)(=O)c1cccnc1` (stereo not drawn) [compound 68], the EC (30% increase) was not above 1 µM. With `OC(COc1ccccn1)CN(Cc1ccccc1)Cc1ccccc1` (stereo not drawn) [compound 10], the EC (30% increase) was in the range of 1 to 10 µM. For the molecule `FC(F)(F)c1ccc(OCCCN2Cc3ccccc3C[C@@H]2c2cccnc2)cc1` [compound 150], the EC (30% increase) lay within 1 to 10 µM. For `O[C@@H](COc1ccc(C(F)(F)F)cc1)CN1CCc2ccccc2[C@H]1c1ccccc1` [compound 116], the EC (30% increase) was more than 10 µM. `O[C@@H](COc1ccc(C(F)(F)F)cc1)CN(Cc1ccccc1)Cc1ccccc1` [compound 1]: the EC (30% increase) was 1 to 10 µM. The value for `Cc1ccccc1CN(CC(O)COc1ccc(C(F)(F)F)cc1)C(=O)c1cscn1` (stereo not drawn) [compound 85] was 1 to 10 µM; that for `Cc1ccccc1CN(CC(O)COc1ccc(C(F)(F)F)cc1)c1cccnc1` (stereo not drawn) [compound 55] was 1 to 10 µM. With `Cn1cncc1C(=O)N(Cc1ccccc1F)CC(O)COc1ccc(C(F)(F)F)cc1` (stereo not drawn) [compound 153], the EC (30% increase) fell in the range of 1 to 10 µM. Turning to `OC(COc1ccc(C(F)(F)F)cc1)CN(Cc1ccccc1)Cc1cncnc1` (stereo not drawn) [compound 13], the EC (30% increase) is not above 1 µM.
